In patent US5399487A, “6-peptidylamino-1-naphthalenesulfonamides useful as fluorogenic proteolytic enzyme substrates” (Haematologic Technologies, Inc., priority 1993, dated 1995):

What was measured:
[1] = target: tissue plasminogen activator (t-PA) (Homo sapiens, UniProt P00750); test: Fluorogenic enzyme assay (Example 5); assay type: biochemical; conditions: enzyme 100 nM, substrate 1 μM; for hydrolysis, t-PA (symbol N.D.): after 24 hrs; for Time (min) for 5% hydrolysis, t-PA: footnote b
Experimental: (§1) Enzyme assays (except factor VIIa assays, see below) were conducted in 20 mM Tris, 150 mM NaCl, pH 7.4 (TBS) at room temperature (22° C.). The final volume for all reaction mixtures was 2.0 ml. Fluorogenic substrates were dissolved in DMSO to a stock concentration of 10 mM. The 10 mM stock solution was diluted in TBS to the final working concentration prior to all assays. Enzyme was added to mixtures containing buffer components and substrate and the initial rate of substrate hydrolysis was measured as the change in fluorescent intensity over time, corresponding to the generation of the particular 6-amino-1-naphthalenesulfonamide fluorophore from the provided substrate. Quantitation of substrate hydrolysis was accomplished by establishing a standard curve from the appropriate fluorescent moiety. Fluorescence was monitored (continuously or discontinuously) using a Perkin Elmer fluorescence spectrophotometer, model MPF-44A, equipped with a standard chart recorder. The fluorophore was detected using monochrometers set at an excitation wavelength of 352 nm and an emission wavelength of 470 nm. Light scattering artifacts were minimized using a 399 nm cut off filter in the emission light beam.
(§2) The kinetic constants of substrate hydrolysis were determined using the non-linear least squares regression analysis program ENZFITTER (Cambridge, UK). This program was used to iteratively fit initial rates of substrate hydrolysis to the Michaelis-Menten equation and the kinetic constants of substrate hydrolysis (Km) and (kcat) were calculated.

urokinase (u-PA) = urokinase (u-PA) (Homo sapiens, UniProt P00749); test: Fluorogenic enzyme assay (Example 5); assay type: biochemical; conditions: enzyme 100 nM, substrate 1 μM; for hydrolysis, u-PA (symbol N.D.): after 24 hrs
Experimental: as §1, §2

plasmin (Plm) = plasmin (Plm) (Homo sapiens, UniProt P00747); test: Fluorogenic enzyme assay (Example 5); assay type: biochemical; conditions: enzyme 100 nM, substrate 1 μM; for Time (min) for 5% hydrolysis, Plm: footnote b
Experimental: as §1, §2

factor Xa = factor Xa (Homo sapiens, UniProt P00742); test: Fluorogenic enzyme assay (Example 5); assay type: biochemical; conditions: for Km / kcat /Km, Xa / kcat, Xa: Table 7; for Time (min) for 10% hydrolysis, Xa: enzyme 100 nM, substrate 1 μM
Experimental: as §1, §2

thrombin (IIa) = target: T1, thrombin (IIa) (Homo sapiens, UniProt P00734); test: Fluorogenic enzyme assay (Example 5); assay type: biochemical; design: key to Hydrolysis kinetic constants, IIa (symbol b): Slow substrate hydrolysis, no kinetic constants calculated; conditions: for Hydrolysis kinetic constants, IIa (symbol b) / Km / kcat /Km, IIa / kcat, IIa: Table 7; for Time (min) for 10% hydrolysis, IIa: enzyme 100 nM, substrate 1 μM
T1 construct: 0.5 nM human thrombin (IIa)
Experimental: as §1, §2

[2] = target: activated protein C (APC) (Homo sapiens, UniProt P04070); test: Fluorogenic enzyme assay (Example 5); assay type: biochemical; design: key to Hydrolysis kinetic constants, APC (symbol b): Slow substrate hydrolysis, no kinetic constants calculated; conditions: for Hydrolysis kinetic constants, APC (symbol b) / Km / kcat /Km, APC / kcat, APC: Table 7; for Time (min) for 10% hydrolysis, APC: enzyme 100 nM, substrate 1 μM
Experimental: as §1, §2

[3] = Fluorescence of 6-amino-1-naphthalenesulfonamides and substrates; assay type: physicochemical; conditions: for Relative Fluorescence: TBS, pH 7.4, 22°C., 1 μM, relative to ANSNH(i-C4 H9), excitation 352 nm, emission 470 nm; for Emission Maxima: free fluorophore
Excerpt: Each of the 6-amino-1-naphthalenesulfonamide detecting groups, i.e., the free fluorophores, have excitation maxima near 350 nm with emission maxima ranging from 465 to 476 nm. Fluorescent measurements show a 2.2 fold range in the intensities of the fluorescent signals among the fifteen synthesized compounds. The 6-peptidylamino-1-naphthalenesulfonamide fluorogenic substrates have a relative fluorescent intensity at 470 nm which is less than 0.1% of that of the respective free fluorophore. Detection of the free fluorophore can be reliably achieved (>2× background) at a concentration of about 10^-9 M in the presence of about 10^-6 fluorogenic substrate.
^a Measured in TBS, pH 7.4. 22°C.. Concentration of ANSNR
R2 = 1 μM. Fluorescence is expressed relative of ANSNH(i-C4
H9). Excitation wavelength = 352 nm, Emission wavelength = 470 nm.

Chain of tissue plasminogen activator (t-PA) (P00750 36-562, species assumed): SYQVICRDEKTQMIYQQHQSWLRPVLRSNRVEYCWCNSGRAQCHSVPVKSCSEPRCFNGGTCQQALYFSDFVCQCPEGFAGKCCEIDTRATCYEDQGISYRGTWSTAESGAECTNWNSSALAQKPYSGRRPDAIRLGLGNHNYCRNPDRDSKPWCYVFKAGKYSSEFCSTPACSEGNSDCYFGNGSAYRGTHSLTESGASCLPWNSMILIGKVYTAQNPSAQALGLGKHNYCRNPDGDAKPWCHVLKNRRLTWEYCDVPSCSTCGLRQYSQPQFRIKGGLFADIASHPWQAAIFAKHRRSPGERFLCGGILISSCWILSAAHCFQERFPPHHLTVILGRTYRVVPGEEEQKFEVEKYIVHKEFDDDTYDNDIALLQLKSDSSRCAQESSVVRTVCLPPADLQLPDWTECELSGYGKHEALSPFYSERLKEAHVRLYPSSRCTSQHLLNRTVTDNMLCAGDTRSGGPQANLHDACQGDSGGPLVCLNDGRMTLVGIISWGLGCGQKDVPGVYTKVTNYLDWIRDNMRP
Chain of factor Xa (P00742 235-488 limits assumed): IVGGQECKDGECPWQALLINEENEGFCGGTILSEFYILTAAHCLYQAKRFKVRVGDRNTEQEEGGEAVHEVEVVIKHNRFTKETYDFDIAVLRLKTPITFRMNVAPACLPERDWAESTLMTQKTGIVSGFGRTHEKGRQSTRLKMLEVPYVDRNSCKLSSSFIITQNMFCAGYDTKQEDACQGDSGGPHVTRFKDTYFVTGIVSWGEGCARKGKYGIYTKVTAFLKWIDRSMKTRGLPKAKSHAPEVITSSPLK
Chain of factor Xa (P00742 41-179 limits assumed): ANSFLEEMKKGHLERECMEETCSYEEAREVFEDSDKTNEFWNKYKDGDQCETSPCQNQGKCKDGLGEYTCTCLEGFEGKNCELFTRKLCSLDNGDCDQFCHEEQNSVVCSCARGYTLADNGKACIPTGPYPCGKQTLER
Chain of activated protein C (APC) (P04070 212-461 limits assumed): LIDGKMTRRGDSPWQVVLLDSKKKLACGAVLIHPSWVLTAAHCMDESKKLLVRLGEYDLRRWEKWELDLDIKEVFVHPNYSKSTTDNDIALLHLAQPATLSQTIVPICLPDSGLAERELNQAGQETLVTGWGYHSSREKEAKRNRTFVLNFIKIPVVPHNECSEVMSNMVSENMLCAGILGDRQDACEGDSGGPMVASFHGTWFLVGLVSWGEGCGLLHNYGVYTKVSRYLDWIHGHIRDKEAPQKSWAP
Chain of activated protein C (APC) (P04070 43-197 limits assumed): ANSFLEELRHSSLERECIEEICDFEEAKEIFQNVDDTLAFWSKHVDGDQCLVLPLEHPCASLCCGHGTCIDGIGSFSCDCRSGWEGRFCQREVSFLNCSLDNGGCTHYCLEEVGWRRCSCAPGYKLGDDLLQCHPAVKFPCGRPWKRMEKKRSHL
Chain of plasmin (Plm) (P00747 581-810 limits assumed, species assumed): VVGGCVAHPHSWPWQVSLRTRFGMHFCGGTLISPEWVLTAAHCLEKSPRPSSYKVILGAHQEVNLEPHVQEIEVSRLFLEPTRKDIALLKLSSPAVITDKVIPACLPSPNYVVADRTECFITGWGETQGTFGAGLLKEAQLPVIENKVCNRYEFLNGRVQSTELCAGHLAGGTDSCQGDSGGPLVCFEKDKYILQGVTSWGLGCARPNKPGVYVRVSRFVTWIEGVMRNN
Chain of plasmin (Plm) (P00747 97-580 limits assumed, species assumed): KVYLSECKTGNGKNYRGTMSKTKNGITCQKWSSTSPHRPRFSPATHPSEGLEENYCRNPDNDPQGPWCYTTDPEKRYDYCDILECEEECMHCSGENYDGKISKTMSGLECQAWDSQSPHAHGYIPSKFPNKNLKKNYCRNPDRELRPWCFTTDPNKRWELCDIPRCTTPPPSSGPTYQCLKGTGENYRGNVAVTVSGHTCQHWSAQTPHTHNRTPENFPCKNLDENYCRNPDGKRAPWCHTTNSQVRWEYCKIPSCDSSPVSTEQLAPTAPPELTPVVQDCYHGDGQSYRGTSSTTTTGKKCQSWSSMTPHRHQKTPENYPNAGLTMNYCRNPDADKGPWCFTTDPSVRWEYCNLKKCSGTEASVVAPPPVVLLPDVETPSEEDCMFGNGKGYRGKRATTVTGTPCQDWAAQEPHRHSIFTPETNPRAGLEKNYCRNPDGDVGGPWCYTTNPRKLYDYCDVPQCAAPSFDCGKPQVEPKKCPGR

Row | Km (factor Xa) | kcat /Km, Xa (factor Xa) | kcat, Xa (factor Xa) | Time (min) for 10% hydrolysis, Xa (factor Xa) | Time (min) for 10% hydrolysis, IIa (thrombin (IIa)) | Time (min) for 10% hydrolysis, APC [2] | Relative Fluorescence [3] | Emission Maxima [3] | SMILES | further results
1 | – | – | – | – | – | – | 65 | 472 nm | CN(C)S(=O)(=O)c1cccc2cc(N)ccc12 [ANSNR1 R2; CH3; CH3] | –
2 | – | – | – | – | – | – | 78 | 466 nm | CCNS(=O)(=O)c1cccc2cc(N)ccc12 [ANSNR1 R2; H; C2 H5] | –
3 | – | – | – | – | – | – | 93 | 470 nm | CCCNS(=O)(=O)c1cccc2cc(N)ccc12 [ANSNR1 R2; H; C3 H7] | –
4 | – | – | – | – | – | – | 63 | 467 nm | CCCCNS(=O)(=O)c1cccc2cc(N)ccc12 [ANSNR1 R2; H; C4 H9] | –
5 | – | – | – | – | – | – | 90 | 469 nm | CCCCCNS(=O)(=O)c1cccc2cc(N)ccc12 [ANSNR1 R2; H; C5 H11] | –
6 | – | – | – | – | – | – | 92 | 468 nm | CNS(=O)(=O)c1cccc2cc(N)ccc12 [ANSNR1 R2; H; CH3] | –
7 | – | – | – | – | – | – | 75 | 467 nm | Nc1ccc2c(S(=O)(=O)NCc3ccccc3)cccc2c1 [ANSNR1 R2; H; benzyl] | –
8 | – | – | – | – | – | – | 101 | 466 nm | Nc1ccc2c(S(=O)(=O)NC3CCCCC3)cccc2c1 [ANSNR1 R2; H; cyclo-C6 H11] | –
9 | – | – | – | – | – | – | 76 | 468 nm | CC(C)NS(=O)(=O)c1cccc2cc(N)ccc12 [ANSNR1 R2; H; i-C3 H7] | –
10 | – | – | – | – | – | – | 100 | 468 nm | CC(C)CNS(=O)(=O)c1cccc2cc(N)ccc12 [ANSNR1 R2; H; i-C4 H9] | –
11 | – | – | – | – | – | – | 112 | 465 nm | CC(C)(C)NS(=O)(=O)c1cccc2cc(N)ccc12 [ANSNR1 R2; H; t-C4 H9] | –
12 | – | – | – | – | – | – | 41 | 476 nm | Nc1ccc2c(S(=O)(=O)N3CCOCC3)cccc2c1 [ANSNR1 R2; morpholyl] | –

More lines, now with the values behind:

Row | SMILES | Km (factor Xa) | kcat /Km, Xa (factor Xa) | kcat, Xa (factor Xa) | Time (min) for 10% hydrolysis, Xa (factor Xa) | Time (min) for 10% hydrolysis, IIa (thrombin (IIa)) | Time (min) for 10% hydrolysis, APC [2] | Relative Fluorescence [3] | Emission Maxima [3] | further results
13 | Br.N=C(N)NCCC[C@H](NC(=O)OCc1ccccc1)C(=O)Nc1ccc2c(S(=O)(=O)N3CCCCCC3)cccc2c1 [(N^α -Z)ArgANSNR1 R2; (CH2)6] | 427 µM | 293 M⁻¹ s⁻¹ | 0.13 s⁻¹ | 20 min | 90 min | 813 min | – | – | hydrolysis, t-PA (symbol N.D.) [1]: N.D. (Less than 5% hydrolysis after 24 hrs.); hydrolysis, u-PA (symbol N.D.) (urokinase (u-PA)): N.D. (Less than 5% hydrolysis after 24 hrs.); Time (min) for 5% hydrolysis, Plm (plasmin (Plm)): 770 min; Hydrolysis kinetic constants, IIa (symbol b) (thrombin (IIa)): b; Hydrolysis kinetic constants, APC (symbol b) [2]: b
14 | Br.CCN(CC)S(=O)(=O)c1cccc2cc(NC(=O)[C@H](CCCNC(=N)N)NC(=O)OCc3ccccc3)ccc12 [(N^α -Z)ArgANSNR1 R2; C2 H5; C2 H5, 6-(N^α -benzyloxycarbonyl-L-arginyl)amino-1-(N,N-diethyl)napthalenesulfonamide hydrobromides] | 200 µM | 1290 M⁻¹ s⁻¹ | 0.26 s⁻¹ | 14 min | 165 min | 1080 min | – | – | hydrolysis, t-PA (symbol N.D.) [1]: N.D. (Less than 5% hydrolysis after 24 hrs.); hydrolysis, u-PA (symbol N.D.) (urokinase (u-PA)): N.D. (Less than 5% hydrolysis after 24 hrs.); Time (min) for 5% hydrolysis, Plm (plasmin (Plm)): 1370 min; Hydrolysis kinetic constants, IIa (symbol b) (thrombin (IIa)): b
15 | Br.CN(C)S(=O)(=O)c1cccc2cc(NC(=O)[C@H](CCCNC(=N)N)NC(=O)OCc3ccccc3)ccc12 [(N^α -Z)ArgANSNR1 R2; CH3; CH3] | 91.4 µM | 1020 M⁻¹ s⁻¹ | 0.09 s⁻¹ | 15 min | 45 min | 200 min | – | – | hydrolysis, t-PA (symbol N.D.) [1]: N.D. (Less than 5% hydrolysis after 24 hrs.); hydrolysis, u-PA (symbol N.D.) (urokinase (u-PA)): N.D. (Less than 5% hydrolysis after 24 hrs.); Time (min) for 10% hydrolysis, Plm (plasmin (Plm)): 1140 min; Km (thrombin (IIa)): 22.6 µM; kcat /Km, IIa (thrombin (IIa)): 630 M⁻¹ s⁻¹; kcat, IIa (thrombin (IIa)): 0.01 s⁻¹; Hydrolysis kinetic constants, APC (symbol b) [2]: b
16 | Br.CCCNS(=O)(=O)c1cccc2cc(NC(=O)[C@H](CCCNC(=N)N)NC(=O)OCc3ccccc3)ccc12 [(N^α -Z)ArgANSNR1 R2; H; C3 H7] | 125 µM | 593 M⁻¹ s⁻¹ | 0.07 s⁻¹ | 40 min | 27 min | 15 min | – | – | hydrolysis, t-PA (symbol N.D.) [1]: N.D. (Less than 5% hydrolysis after 24 hrs.); Time (min) for 10% hydrolysis, u-PA (urokinase (u-PA)): 220 min; Time (min) for 5% hydrolysis, Plm (plasmin (Plm)): 1620 min; Km (thrombin (IIa)): 22.2 µM; kcat /Km, IIa (thrombin (IIa)): 1580 M⁻¹ s⁻¹; kcat, IIa (thrombin (IIa)): 0.04 s⁻¹; Km [2]: 320 µM; kcat /Km, APC [2]: 1470 M⁻¹ s⁻¹; kcat, APC [2]: 0.47 s⁻¹
17 | Br.CCCCCNS(=O)(=O)c1cccc2cc(NC(=O)[C@H](CCCNC(=N)N)NC(=O)OCc3ccccc3)ccc12 [(N^α -Z)ArgANSNR1 R2; H; C5 H11] | 36.8 µM | 979 M⁻¹ s⁻¹ | 0.04 s⁻¹ | 45 min | 30 min | 12 min | – | – | Time (min) for 5% hydrolysis, t-PA [1]: 1280 min; Time (min) for 10% hydrolysis, u-PA (urokinase (u-PA)): 43 min; Time (min) for 10% hydrolysis, Plm (plasmin (Plm)): 510 min; Km (thrombin (IIa)): 41.4 µM; kcat /Km, IIa (thrombin (IIa)): 242 M⁻¹ s⁻¹; kcat, IIa (thrombin (IIa)): 0.01 s⁻¹; Km [2]: 436 µM; kcat /Km, APC [2]: 1830 M⁻¹ s⁻¹; kcat, APC [2]: 0.8 s⁻¹
18 | Br.CNS(=O)(=O)c1cccc2cc(NC(=O)[C@H](CCCNC(=N)N)NC(=O)OCc3ccccc3)ccc12 [(N^α -Z)ArgANSNR1 R2; H; CH3] | 160 µM | 714 M⁻¹ s⁻¹ | 0.11 s⁻¹ | 25 min | 38 min | 120 min | – | – | Time (min) for 5% hydrolysis, t-PA [1]: 1280 min; Time (min) for 10% hydrolysis, u-PA (urokinase (u-PA)): 660 min; Time (min) for 5% hydrolysis, Plm (plasmin (Plm)): 1620 min; Km (thrombin (IIa)): 62.5 µM; kcat /Km, IIa (thrombin (IIa)): 640 M⁻¹ s⁻¹; kcat, IIa (thrombin (IIa)): 0.04 s⁻¹; Hydrolysis kinetic constants, APC (symbol b) [2]: b
19 | Br.N=C(N)NCCC[C@H](NC(=O)OCc1ccccc1)C(=O)Nc1ccc2c(S(=O)(=O)NCc3ccccc3)cccc2c1 [(N^α -Z)ArgANSNR1 R2; H; benzyl] | 213 µM | 198 M⁻¹ s⁻¹ | 0.04 s⁻¹ | 46 min | 17 min | 12 min | – | – | Time (min) for 10% hydrolysis, t-PA [1]: 510 min; Time (min) for 10% hydrolysis, u-PA (urokinase (u-PA)): 19 min; Time (min) for 10% hydrolysis, Plm (plasmin (Plm)): 330 min; Km (thrombin (IIa)): 41 µM; kcat /Km, IIa (thrombin (IIa)): 1680 M⁻¹ s⁻¹; kcat, IIa (thrombin (IIa)): 0.07 s⁻¹; Km [2]: 218 µM; kcat /Km, APC [2]: 1050 M⁻¹ s⁻¹; kcat, APC [2]: 0.23 s⁻¹
20 | Nc1ccc2c(S(=O)(=O)N3CCCCC3)cccc2c1 [ANSNR1 R2; (CH2)5] | – | – | – | – | – | – | 68 | 473 nm | –
21 | Nc1ccc2c(S(=O)(=O)N3CCCCCC3)cccc2c1 [ANSNR1 R2; (CH2)6] | – | – | – | – | – | – | 96 | 469 nm | –
22 | CCN(CC)S(=O)(=O)c1cccc2cc(N)ccc12 [ANSNR1 R2; C2 H5; C2 H5, 6-amino-1-(N,N-diethyl)naphthalenesulfonamide] | – | – | – | – | – | – | 89 | 470 nm | –
